13 molecules from ChEMBL document CHEMBL1132895, “Immunomodulatory activity of hexapeptides related to proline rich peptide from colostrum” (2000) can be followed below.

Non-standard residues stand in square brackets, D forms with d. Residues, ends and D or L forms follow the SMILES beside them. Nva = CCC[C@H](N)C(=O)O; Sar = CNCC(=O)O

What all share (type): functional
Test [1] is filed under the species Mus musculus. Put plainly: Compound (1.0 ug/mL) was tested for their immunomodulatory activity in vitro using lymphocyte transformation test.
Test [2] is filed under the species Mus musculus. The test can be described thus: Compound (0.01 ug/mL) was tested for their immunomodulatory activity in vitro using mixed lymphocyte reaction.
The species entered for test [3] is Mus musculus. The test can be described thus: Compound (0.10 ug/mL) was tested for their immunomodulatory activity in vitro using lymphocyte transformation test.
The species entered for test [4] is Mus musculus. The test can be described thus: Compound (0.01 ug/mL) was tested for their immunomodulatory activity in vitro using lymphocyte transformation test.
Test [5] is filed under the species Mus musculus. Put plainly: Compound (10 ug/mL) was tested for their immunomodulatory activity in vitro using mixed lymphocyte reaction.
The species entered for test [6] is Mus musculus. Put plainly: Compound (1.0 ug/mL) was tested for their immunomodulatory activity in vitro using mixed lymphocyte reaction.
Test [7] is filed under the species Mus musculus. Put plainly: Compound (0.10 ug/mL) was tested for their immunomodulatory activity in vitro using mixed lymphocyte reaction.
The species named for test [8] is Mus musculus. The test can be described thus: Compound (10 ug/mL) was tested for their immunomodulatory activity in vitro using lymphocyte transformation test.

For `CC(C)[C@H](NC(=O)[C@@H](N)Cc1ccc(O)cc1)C(=O)N1CCC[C@H]1C(=O)NCC(=O)N[C@@H](Cc1ccccc1)C(=O)N(C)CC(=O)O` (H-YVPGF[Sar]-OH), the Stimulation index in test [1] is listed as 1.9; in test [2] it was 0.71; in test [3], 0.61; in test [4] it was 0.83; in test [5], 0.92; in test [6], 0.72. Further, the Stimulation index stood at 0.8 in test [7] and 1.6 in test [8].

Consider `CC(C)[C@H](NC(=O)[C@@H](N)Cc1ccc(O)cc1)C(=O)N1CCCC1C(=O)NCC(=O)NC(Cc1ccccc1)C(=O)N1CCCC1C(=O)O` (single isomer, unassigned; form 1), for which the Stimulation index is on record as 0.96 in test [1], 1.02 in test [3], 0.89 in test [4] and 1.05 in test [8].

On to H-YVPGFP-NH2, for which the Stimulation index was found to be 1.1 in test [1], 0.85 in test [3], 0.83 in test [4] and 0.84 in test [8].

Consider `CC(C)C[C@H](NC(=O)C1CCCN1C(=O)[C@@H](NC(=O)C(N)Cc1ccc(O)cc1)C(C)C)C(=O)N[C@@H](Cc1ccccc1)C(=O)N1CCCC1C(=O)O` (single isomer, unassigned; form 2), for which the Stimulation index in test [1] was 1.27; in test [3] it was 0.86; in test [4], 0.78; in test [8], 0.95.

In the case of `CC(C)C[C@H](NC(=O)[C@@H]1CCCN1C(=O)[C@@H](NC(=O)[C@@H](N)Cc1ccc(O)cc1)C(C)C)C(=O)N[C@@H](Cc1ccccc1)C(=O)N(C)CC(=O)O` (H-YVPLF[Sar]-OH), the Stimulation index worked out at 1.21 in test [1], 0.86 in test [3], 0.9 in test [4] and 1.2 in test [8].

With `CC(C)[C@H](NC(=O)[C@@H](N)Cc1ccc(O)cc1)C(=O)N1CCC[C@H]1C(=O)NCC(=O)N[C@@H](Cc1ccccc1)C(=O)N1CCC[C@H]1C(=O)O`, the Stimulation index turned out to be 1.02 in test [1]; 0.72 in test [2]; 1.05 in test [3]; 1.13 in test [4]; 1 in test [5]; 0.85 in test [6]. The results for the Stimulation index in test [7] and in test [8] were 0.79 and 0.75, respectively.

Take `CC(C)[C@H](NC(=O)[C@@H](N)Cc1ccc(O)cc1)C(=O)N1CCC[C@H]1C(=O)N(C)CC(=O)N[C@@H](Cc1ccccc1)C(=O)N1CCC[C@H]1C(=O)O` (H-YVP[Sar]FP-OH): the Stimulation index is 1.37 in test [1], 1.21 in test [3], 1.41 in test [4] and 0.96 in test [8].

As for `CCC[C@H](NC(=O)[C@@H](N)Cc1ccc(O)cc1)C(=O)N1CCC[C@H]1C(=O)NCC(=O)N[C@@H](Cc1ccccc1)C(=O)N1CCC[C@H]1C(=O)O` (H-Y[Nva]PGFP-OH), the Stimulation index in test [1] came out at 1.15; in test [3], 1.06; in test [4], 0.86; in test [8], 0.73.

Take `CC(C)[C@H](NC(=O)[C@@H](N)Cc1ccc(O)cc1)C(=O)N1CCCC1C(=O)NCC(=O)NC(Cc1ccccc1)C(=O)N1CCCC1C(=O)O` (single isomer, unassigned; form 2): the Stimulation index in test [1] worked out at 1.17; in test [2] it was 0.96; in test [3], 1.29; in test [4], 0.97; in test [5] it was 1; in test [6], 1.31. Further, the Stimulation index in test [7] is listed as 0.9; in test [8], 1.4.

In test [7], `C[C@]12C=CC(=O)C=C1CCC1[C@@H]2[C@@H](O)C[C@@]2(C)[C@H]1CC[C@]2(O)C(=O)CO` (single isomer, unassigned) [PREDNISOLONE] came in with a Stimulation index of 0.3.

For `CC(C)C[C@H](NC(=O)CN(C)C(=O)[C@@H](NC(=O)[C@@H](N)Cc1ccc(O)cc1)C(C)C)C(=O)N[C@@H](Cc1ccccc1)C(=O)N1CCCC1C(=O)O` (single isomer, unassigned), the Stimulation index in test [1] is 1.24; in test [3], 0.97; in test [4] it was 0.88; in test [8], 1.12.

On to H-YLPGFP-OH, for which the Stimulation index was determined as 0.62 in test [1]; 0.63 in test [2]; 0.64 in test [3]; 0.75 in test [4]; 1.24 in test [5]; 1.2 in test [6]. Besides, the values for the Stimulation index in test [7] and in test [8] were 0.5 and 0.59, respectively.

On to `CC(C)C[C@H](NC(=O)C1CCCN1C(=O)[C@@H](NC(=O)C(N)Cc1ccc(O)cc1)C(C)C)C(=O)N[C@@H](Cc1ccccc1)C(=O)N1CCCC1C(=O)O` (single isomer, unassigned; form 1), for which the Stimulation index in test [1] came out at 0.88; in test [3], 1.08; in test [4], 1.1; in test [8], 0.82.
